Reference: ChEMBL document CHEMBL1129035, “Tyrosine kinase inhibitors. 9. Synthesis and evaluation of fused tricyclic quinazoline analogues as ATP site inhibitors of the tyrosine kinase activity of the epidermal growth factor receptor” (J Med Chem, 1996)

Columns and labels:
[1] = target: T1, Epidermal growth factor receptor (Homo sapiens, UniProt P00533); experiment: Inhibition of tyrosine kinase activity of Epidermal growth factor receptor from human A431 carcinoma cells
[2] = target: T1, Epidermal growth factor receptor; experiment: Inhibition of tyrosine kinase activity of Epidermal growth factor receptor from human A431 cells
[3] = target: Fibroblast growth factor receptor (Mus musculus, UniProt P21803+Q03142+P16092+Q61851); experiment: Inhibition of FGF-mediated mitogenesis in Swiss 3T3 cells; type: functional, cell-based
[4] = Inhibition of Platelet-derived growth factor receptor
Protein kinase C (PKC) = experiment: Inhibition of Protein kinase C; type: protein assay
[5] = target: Platelet-derived growth factor receptor (Mus musculus, UniProt P05622+P26618); experiment: Inhibition of PDGF-mediated mitogenesis in Swiss 3T3 cells; type: functional, cell-based
[6] = target: Proto-oncogene tyrosine-protein kinase Src (Homo sapiens, UniProt P12931); experiment: Inhibition of c-src enzyme.
[7] = target: Fibroblast growth factor receptor (Homo sapiens, UniProt P22607+P11362+P22455+P21802); experiment: Inhibition of Fibroblast growth factor receptor; type: protein assay
Insulin receptor = Insulin receptor (Homo sapiens, UniProt P06213); experiment: Inhibition of Insulin receptor.
[8] = Inhibitory activity against v-src enzyme.

T1 sequence (P00533 whole entry): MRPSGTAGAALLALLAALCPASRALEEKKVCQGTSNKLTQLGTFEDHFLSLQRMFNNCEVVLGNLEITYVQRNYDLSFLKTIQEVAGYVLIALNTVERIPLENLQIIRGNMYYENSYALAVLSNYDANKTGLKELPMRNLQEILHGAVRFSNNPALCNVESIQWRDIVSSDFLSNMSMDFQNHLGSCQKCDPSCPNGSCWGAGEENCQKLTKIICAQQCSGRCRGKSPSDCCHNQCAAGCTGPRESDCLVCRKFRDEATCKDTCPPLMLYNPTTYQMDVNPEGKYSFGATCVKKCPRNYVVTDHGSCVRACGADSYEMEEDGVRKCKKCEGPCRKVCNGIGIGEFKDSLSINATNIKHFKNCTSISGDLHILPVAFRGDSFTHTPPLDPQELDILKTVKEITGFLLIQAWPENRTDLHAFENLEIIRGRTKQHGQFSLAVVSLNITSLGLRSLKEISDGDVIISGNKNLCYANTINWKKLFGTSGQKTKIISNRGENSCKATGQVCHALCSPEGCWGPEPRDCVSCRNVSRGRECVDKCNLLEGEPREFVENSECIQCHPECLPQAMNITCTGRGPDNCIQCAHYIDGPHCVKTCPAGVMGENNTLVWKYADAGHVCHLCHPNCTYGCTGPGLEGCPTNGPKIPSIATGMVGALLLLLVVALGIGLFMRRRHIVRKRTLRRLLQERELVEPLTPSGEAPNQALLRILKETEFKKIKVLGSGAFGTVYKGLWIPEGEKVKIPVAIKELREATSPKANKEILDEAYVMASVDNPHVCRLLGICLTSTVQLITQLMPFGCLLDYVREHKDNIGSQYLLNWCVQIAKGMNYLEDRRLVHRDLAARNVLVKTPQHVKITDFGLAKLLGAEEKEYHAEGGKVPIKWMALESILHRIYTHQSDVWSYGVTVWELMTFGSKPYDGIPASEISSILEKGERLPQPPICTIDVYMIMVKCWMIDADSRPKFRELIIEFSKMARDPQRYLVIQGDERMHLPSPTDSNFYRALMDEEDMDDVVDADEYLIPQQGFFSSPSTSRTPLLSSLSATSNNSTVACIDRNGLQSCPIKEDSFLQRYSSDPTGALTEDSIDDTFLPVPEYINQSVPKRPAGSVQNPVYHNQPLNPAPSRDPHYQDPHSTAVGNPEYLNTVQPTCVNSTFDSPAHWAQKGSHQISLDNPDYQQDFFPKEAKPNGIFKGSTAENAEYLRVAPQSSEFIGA
Chain of Insulin receptor (P06213 28-758 limits assumed): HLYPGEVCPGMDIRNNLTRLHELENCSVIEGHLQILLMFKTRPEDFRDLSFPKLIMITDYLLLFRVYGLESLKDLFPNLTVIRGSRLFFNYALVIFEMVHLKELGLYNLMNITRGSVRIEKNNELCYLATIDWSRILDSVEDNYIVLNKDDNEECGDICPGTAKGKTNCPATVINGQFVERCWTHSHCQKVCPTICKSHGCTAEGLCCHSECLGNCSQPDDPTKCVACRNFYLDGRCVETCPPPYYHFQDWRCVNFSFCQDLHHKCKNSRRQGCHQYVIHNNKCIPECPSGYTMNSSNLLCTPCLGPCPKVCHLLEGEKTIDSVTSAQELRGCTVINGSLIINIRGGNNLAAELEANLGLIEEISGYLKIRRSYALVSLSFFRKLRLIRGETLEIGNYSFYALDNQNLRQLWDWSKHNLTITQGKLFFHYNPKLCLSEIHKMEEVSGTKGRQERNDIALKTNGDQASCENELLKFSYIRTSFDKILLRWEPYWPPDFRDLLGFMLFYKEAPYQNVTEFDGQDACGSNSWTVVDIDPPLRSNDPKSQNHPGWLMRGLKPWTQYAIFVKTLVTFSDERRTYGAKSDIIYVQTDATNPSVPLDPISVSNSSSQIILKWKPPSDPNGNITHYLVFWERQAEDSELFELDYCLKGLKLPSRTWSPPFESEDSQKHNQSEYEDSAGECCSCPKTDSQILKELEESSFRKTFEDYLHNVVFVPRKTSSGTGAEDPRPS
Chain of Insulin receptor (P06213 763-1382 limits assumed): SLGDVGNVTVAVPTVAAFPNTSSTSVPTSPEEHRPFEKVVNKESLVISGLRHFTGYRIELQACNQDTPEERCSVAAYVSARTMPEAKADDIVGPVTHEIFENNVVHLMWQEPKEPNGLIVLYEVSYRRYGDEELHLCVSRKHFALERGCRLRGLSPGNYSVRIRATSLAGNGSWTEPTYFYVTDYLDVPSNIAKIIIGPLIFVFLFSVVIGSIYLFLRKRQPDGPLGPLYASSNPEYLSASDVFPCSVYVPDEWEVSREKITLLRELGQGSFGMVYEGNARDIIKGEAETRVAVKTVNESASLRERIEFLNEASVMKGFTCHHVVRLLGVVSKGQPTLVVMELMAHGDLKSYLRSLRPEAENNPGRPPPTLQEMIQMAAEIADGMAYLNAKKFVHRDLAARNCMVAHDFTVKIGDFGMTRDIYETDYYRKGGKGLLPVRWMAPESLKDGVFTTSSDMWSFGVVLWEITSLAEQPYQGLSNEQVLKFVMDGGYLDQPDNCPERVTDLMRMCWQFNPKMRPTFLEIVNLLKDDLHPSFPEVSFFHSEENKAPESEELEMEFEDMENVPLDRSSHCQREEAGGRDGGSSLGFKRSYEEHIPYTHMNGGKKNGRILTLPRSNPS
Chain of Proto-oncogene tyrosine-protein kinase Src (P12931 2-536 limits assumed): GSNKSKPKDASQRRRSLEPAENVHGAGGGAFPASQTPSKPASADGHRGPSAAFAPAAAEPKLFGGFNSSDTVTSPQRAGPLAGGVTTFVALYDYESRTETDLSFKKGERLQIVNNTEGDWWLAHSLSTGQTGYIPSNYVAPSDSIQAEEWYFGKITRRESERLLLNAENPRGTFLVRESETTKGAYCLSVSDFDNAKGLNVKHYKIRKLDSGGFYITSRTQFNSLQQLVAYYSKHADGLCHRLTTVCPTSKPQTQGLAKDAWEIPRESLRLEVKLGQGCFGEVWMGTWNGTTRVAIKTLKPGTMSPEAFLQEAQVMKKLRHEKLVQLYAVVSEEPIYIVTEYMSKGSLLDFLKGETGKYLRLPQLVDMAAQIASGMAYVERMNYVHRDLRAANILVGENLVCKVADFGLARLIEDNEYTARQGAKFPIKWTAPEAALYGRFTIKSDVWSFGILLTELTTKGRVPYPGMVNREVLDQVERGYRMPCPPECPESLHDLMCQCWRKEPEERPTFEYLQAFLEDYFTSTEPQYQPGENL

Row | SMILES | IC50 [1] | IC50 [2] | further results
1 | CN(C)CCn1cnc2cc3c(Nc4cccc(Br)c4)ncnc3cc21 |  | 22 nM | 
2 | Cn1cnc2cc3ncnc(Nc4cccc(Br)c4)c3cc21 | 0.01 nM |  | 
3 | CN(C)CCn1cnc2cc3ncnc(Nc4cccc(Br)c4)c3cc21 |  | 1.32 nM | 
4 | Brc1cccc(Nc2ncnc3cc4[nH]ccc4cc23)c1 | 0.44 nM |  | 
5 | Cc1nc2cc3ncnc(Nc4cccc(Br)c4)c3cc2[nH]1 | 0.29 nM |  | 
6 | CN(C)CCn1cnc2c(Cl)c3c(Nc4cccc(Br)c4)ncnc3cc21 |  | 203 nM | 
7 | Brc1cccc(Nc2ncnc3cc4ccccc4cc23)c1 | 0.003 nM |  | 
8 | Brc1cccc(Nc2ncnc3cc4[nH]cnc4cc23)c1 |  |  | IC50 [3]: > 50000 nM; IC50 [4]: > 50000 nM; IC50 (Protein kinase C (PKC)): > 50000 nM; IC50 [5]: > 50000 nM; IC50 [6]: > 50000 nM; IC50 [7]: > 50000 nM; IC50 (Insulin receptor): > 50000 nM; IC50 [8]: > 50000 nM

Continued, in another order:

Row | IC50 [1] | IC50 [2] | SMILES | further results
9 | 1.24 nM |  | Brc1cccc(Nc2ncnc3ccc4cc[nH]c4c23)c1 | 
10 | 272 nM |  | Brc1cccc(Nc2ncnc3c2ccc2[nH]cnc23)c1 | 
11 |  | 4.1 nM | Brc1cccc(Nc2ncnc3cc4[nH]nnc4cc23)c1 | 
12 | 44 nM |  | Brc1cccc(Nc2ncnc3cc4ncsc4cc23)c1 | 
13 |  | 0.34 nM | Brc1cccc(Nc2ncnc3cc4cn[nH]c4cc23)c1 | 
14 |  | 0.44 nM | Brc1cccc(Nc2ncnc3cc4[nH]ncc4cc23)c1 | 
